Values of other authors, collected in patent US5362496A, “Method and therapeutic system for smoking cessation” (priority 1993, dated 1994).
Where two headings read alike, the source gives them in different places. Peptide text beside a SMILES is read from it.

How the values were obtained:
[1] = relative, Sucrose = 1.0
[2] = test system: Streptococcus mutans and other oral microorganisms
[3] = in vitro and in vivo studies
[4] = humans
[5] = human cadaver skin in vitro
[6] = free base; mucous membranes and intact skin
[7] = test system: nicotinic cholinergic receptors in the central nervous system and at autonomic ganglia; conditions: in 10 minutes

## CC1=CC(=O)NS(=O)(=O)O1 [Acesulfame]
[1]
  Sweetness: 200

## COC(=O)[C@H](Cc1ccccc1)NC(=O)[C@@H](N)CC(=O)O [Aspartame] (H-Asp-Phe-OMe)
[1]
  Sweetness: 100-200

## O=S(=O)(O)NC1CCCCC1 [Cyclamate]
[1]
  Sweetness: 30-40

## OC[C@@H](O)[C@@H](O[C@H]1O[C@H](CO)[C@@H](O)[C@H](O)[C@H]1O)[C@H](O)[C@@H](O)CO [Maltitol]
[1]
  Sweetness: 0.7-0.9
[2]
  cariogenicity: generally not fermented to any significant degree and are less cariogenic than sucrose

## OC[C@@H](O)[C@@H](O)[C@H](O)[C@H](O)CO [Mannitol]
[1]
  Sweetness: 0.4-0.6
[2]
  cariogenicity: generally not fermented to any significant degree and are less cariogenic than sucrose

## COc1ccc([C@@H]2CC(=O)c3c(O)cc(O[C@@H]4O[C@H](CO)[C@@H](O)[C@H](O)[C@H]4O[C@@H]4O[C@@H](C)[C@H](O)[C@@H](O)[C@H]4O)cc3O2)cc1O [Neohesperidine]
[1]
  Sweetness: 1000

## O=C(CO)[C@@H](O)[C@H](O)[C@H](O)CO[C@H]1O[C@H](CO)[C@@H](O)[C@H](O)[C@H]1O [Palantinose]
[1]
  Sweetness: 0.4-0.5
[2]
  cariogenicity: generally not fermented to any significant degree and are less cariogenic than sucrose

## O=C1NS(=O)(=O)c2ccccc21 [Saccharin]
[1]
  Sweetness: 400-500

## OC[C@@H](O)[C@@H](O)[C@H](O)[C@@H](O)CO [Sorbitol]
[1]
  Sweetness: 0.5-0.6
[2]
  cariogenicity: generally not fermented to any significant degree and are less cariogenic than sucrose

## OC[C@@H](O)[C@H](O)[C@@H](O)CO [Xylitol]
[1]
  Sweetness: 1.0
[2]
  cariogenicity: generally not fermented to any significant degree and are less cariogenic than sucrose
[3]
  effect on development of new caries: inhibit the development of new caries
[4]
  effect on food intake: decrease food intake
  effect on gastric emptying: prolong gastric emptying

## CC1(C)[C@@H](O[C@H]2O[C@H](C(=O)O)[C@@H](O)[C@H](O)[C@H]2O[C@@H]2O[C@H](C(=O)O)[C@@H](O)[C@H](O)[C@H]2O)CC[C@]2(C)[C@H]3C(=O)C=C4[C@@H]5C[C@@](C)(C(=O)O)CC[C@]5(C)CC[C@@]4(C)[C@]3(C)CC[C@@H]12 [ammonium glycyrrhizinate]
[2]
  cariogenicity: generally not fermented to any significant degree and are less cariogenic than sucrose

## O=C(CO)[C@@H](O)[C@H](O)[C@H](O)CO [fructose]
[2]
  cariogenicity: generally not fermented to any significant degree and are less cariogenic than sucrose

## O=C[C@H](O)[C@@H](O)[C@H](O)[C@H](O)CO [glucose]
[2]
  cariogenicity: cariogenic or caries causing

## CN1CCCC1c1cccnc1 (stereo not shown) [nicotine]
[5]; first day of patch use
  skin permeability: ~0.1 mg/cm^2 ·h
[5]; later times
  skin permeability: ≥ 0.4 mg/cm^2 ·h
[6]
  absorption through membranes and skin: absorbed readily through mucous membranes and intact skin
other
  lipid solubility: highly lipid soluble
Free base
  volatility: extremely volatile
Ultraviolet light
  light stability: degrades when exposed to ultraviolet light
[7]
  rise in nicotine blood level required for postsynaptic effects: at least 10 ng/mL

## OC[C@H]1O[C@@](CO)(O[C@H]2O[C@H](CO)[C@@H](O)[C@H](O)[C@H]2O)[C@@H](O)[C@@H]1O [sucrose, reference compound]
[2]
  cariogenicity: cariogenic or caries causing

## Monellin
[1]
  Sweetness: 2500

## starch
[2]
  cariogenicity: cariogenic or caries causing
